Experimental data published in US9809623B2, “α4β7 peptide monomer and dimer antagonists” (Protagonist Therapeutics, Inc., priority 2014, dated 2017).
Numbered stars: 1 amine (or outer) side, 2 acyl side, 3 side chain; on linkers, the order of the positions; unused ones are H or OH. Bridge positions count the residues as written; N and C are the ends. Square brackets hold non-standard residues; d marks the D form. Peptide text beside a SMILES is read from it. I, II: the chains in the order shown. Diglycolyl = O=C(COCC(=O)[*:2])[*:1]; NMeR = CN[C@@H](CCCNC(=N)N)C(=O)O; Pen = CC(C)(S)[C@H](N)C(=O)O

Tests used:
α4β7 = α4β7 (Homo sapiens, UniProt P13612+P26010); test: α4β7-MAdCAM Cell Adhesion Assay (RPMI 8866 human cells); assay type: cell-based; set-up: host or cells: RPMI 8866 human B lymphoblastoid cells; settings: Table 4-B; read-out: Cell Adhesion α4β7 IC50
In short: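 Washed RPMI 8866 cells (200,000/well) in DMEM with 0.1% BSA, 10 mM HEPES pH 7, 1 mM MnCl2 adhered to rh MAdCAM-1/Fc-coated wells with serially diluted peptides, 30-45 min at 37 °C. After three washes, bound cells quantified by MTT, A570, cell-free background subtracted for dose response.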

[1] = Simulated Intestinal Fluid (SIF) Stability Assay; assay type: in vitro ADME, porcine; settings: pig, simulated intestinal fluid (SIF) with 1% porcine pancreatin, pH 6.5, Table 4-C, t1/2; > means assay stopped at that time; read-out: SIF (porcine) Min
In short: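 Peptides (22 μM final) incubated at 37 °C in FASSIF (pH 6.5) with 1% porcine pancreatin; aliquots quenched at various times and analyzed by LC-MS/MS against internal standard. Half-life from first-order exponential decay fit of percent remaining.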

rh integrin α4β7 = target: T1, rh integrin α4β7 (Homo sapiens, UniProt P13612+P26010); test: α4β7-MAdCAM Competition ELISA; assay type: binding; settings: Table 4-B; read-out: ELISA α4β7 IC50
T1 construct: purchased R&D Systems 5397-A30
In short: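 Recombinant human α4β7 was captured on nickel plates at 800 ng/well. Peptide in 3-fold serial dilution (final top 10 μM) competed with MAdCAM-1 (final 10 nM) for 1 h at room temperature in 50 mM Tris pH 7.6, 150 mM NaCl, 1 mM MnCl2 or MgCl2. Bound MAdCAM-1 was detected with anti-human IgG1-HRP/TMB at A450.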

T1 sequence (P13612 34-977 limits assumed): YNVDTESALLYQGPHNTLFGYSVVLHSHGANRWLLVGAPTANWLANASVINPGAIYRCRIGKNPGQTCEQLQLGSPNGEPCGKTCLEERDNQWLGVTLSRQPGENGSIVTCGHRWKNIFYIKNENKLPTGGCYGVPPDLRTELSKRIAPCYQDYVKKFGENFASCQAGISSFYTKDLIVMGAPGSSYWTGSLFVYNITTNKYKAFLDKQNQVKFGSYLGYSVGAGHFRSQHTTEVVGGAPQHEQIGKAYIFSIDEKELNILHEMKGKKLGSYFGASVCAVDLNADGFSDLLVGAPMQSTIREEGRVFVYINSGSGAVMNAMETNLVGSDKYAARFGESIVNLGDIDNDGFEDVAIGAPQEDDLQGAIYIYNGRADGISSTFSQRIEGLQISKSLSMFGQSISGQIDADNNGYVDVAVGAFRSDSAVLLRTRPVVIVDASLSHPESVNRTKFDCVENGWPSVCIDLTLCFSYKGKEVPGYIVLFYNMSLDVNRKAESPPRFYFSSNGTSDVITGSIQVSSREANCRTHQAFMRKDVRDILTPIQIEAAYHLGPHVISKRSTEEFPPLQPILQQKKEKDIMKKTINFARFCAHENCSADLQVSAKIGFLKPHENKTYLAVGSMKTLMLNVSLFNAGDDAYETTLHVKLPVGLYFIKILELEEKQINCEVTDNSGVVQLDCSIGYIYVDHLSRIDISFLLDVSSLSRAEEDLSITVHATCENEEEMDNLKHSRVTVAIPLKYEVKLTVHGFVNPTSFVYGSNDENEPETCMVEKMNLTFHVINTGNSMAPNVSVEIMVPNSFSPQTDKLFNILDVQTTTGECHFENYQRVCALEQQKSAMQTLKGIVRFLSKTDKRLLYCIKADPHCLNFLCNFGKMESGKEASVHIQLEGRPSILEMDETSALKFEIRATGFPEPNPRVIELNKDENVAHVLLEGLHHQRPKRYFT
T1 sequence (P26010 20-723 limits assumed): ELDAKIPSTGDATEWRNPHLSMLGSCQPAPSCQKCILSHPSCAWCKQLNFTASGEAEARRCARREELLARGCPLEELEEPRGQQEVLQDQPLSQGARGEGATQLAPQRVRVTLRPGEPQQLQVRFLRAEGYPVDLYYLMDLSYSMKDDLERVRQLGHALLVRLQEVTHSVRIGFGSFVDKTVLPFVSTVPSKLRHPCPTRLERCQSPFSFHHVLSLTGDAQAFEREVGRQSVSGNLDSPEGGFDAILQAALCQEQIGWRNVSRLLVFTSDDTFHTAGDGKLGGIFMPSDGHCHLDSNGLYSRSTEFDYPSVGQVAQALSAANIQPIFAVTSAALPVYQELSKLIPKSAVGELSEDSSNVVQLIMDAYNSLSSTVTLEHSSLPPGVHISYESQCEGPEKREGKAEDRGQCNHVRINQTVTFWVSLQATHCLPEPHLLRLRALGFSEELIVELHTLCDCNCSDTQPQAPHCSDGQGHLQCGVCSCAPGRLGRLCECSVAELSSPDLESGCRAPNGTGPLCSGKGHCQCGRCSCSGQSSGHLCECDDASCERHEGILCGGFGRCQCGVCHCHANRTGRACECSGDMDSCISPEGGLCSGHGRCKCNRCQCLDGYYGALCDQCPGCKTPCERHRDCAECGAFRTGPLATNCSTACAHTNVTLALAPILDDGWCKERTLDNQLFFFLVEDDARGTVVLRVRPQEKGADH
Sequence of α4β7 (P13612 34-1032): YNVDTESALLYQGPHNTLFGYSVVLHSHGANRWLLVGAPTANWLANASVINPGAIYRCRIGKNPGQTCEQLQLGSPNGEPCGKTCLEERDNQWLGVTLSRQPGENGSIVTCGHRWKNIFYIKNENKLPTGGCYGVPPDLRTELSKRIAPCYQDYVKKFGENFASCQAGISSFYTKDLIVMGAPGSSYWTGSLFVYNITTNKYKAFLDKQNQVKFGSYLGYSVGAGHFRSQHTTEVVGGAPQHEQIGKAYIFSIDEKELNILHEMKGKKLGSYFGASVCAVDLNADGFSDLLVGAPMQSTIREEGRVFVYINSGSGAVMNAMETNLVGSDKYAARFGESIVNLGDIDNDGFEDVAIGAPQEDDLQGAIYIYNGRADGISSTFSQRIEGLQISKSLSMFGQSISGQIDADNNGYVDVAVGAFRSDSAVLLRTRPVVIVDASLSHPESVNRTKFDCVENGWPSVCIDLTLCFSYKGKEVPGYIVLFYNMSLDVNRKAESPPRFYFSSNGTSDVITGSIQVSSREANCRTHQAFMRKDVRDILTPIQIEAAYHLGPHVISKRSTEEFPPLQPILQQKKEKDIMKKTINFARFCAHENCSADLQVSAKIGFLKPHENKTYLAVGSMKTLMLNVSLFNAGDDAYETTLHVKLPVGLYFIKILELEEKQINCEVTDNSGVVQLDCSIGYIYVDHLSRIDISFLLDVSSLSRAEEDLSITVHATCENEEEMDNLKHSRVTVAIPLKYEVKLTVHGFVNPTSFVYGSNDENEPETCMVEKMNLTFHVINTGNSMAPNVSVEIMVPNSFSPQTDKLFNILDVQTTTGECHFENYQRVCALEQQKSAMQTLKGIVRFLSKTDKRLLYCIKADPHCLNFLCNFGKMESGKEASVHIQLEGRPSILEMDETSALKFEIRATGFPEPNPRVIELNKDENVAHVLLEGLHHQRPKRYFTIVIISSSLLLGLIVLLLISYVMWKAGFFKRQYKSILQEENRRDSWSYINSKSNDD
Sequence of α4β7 (P26010 20-798): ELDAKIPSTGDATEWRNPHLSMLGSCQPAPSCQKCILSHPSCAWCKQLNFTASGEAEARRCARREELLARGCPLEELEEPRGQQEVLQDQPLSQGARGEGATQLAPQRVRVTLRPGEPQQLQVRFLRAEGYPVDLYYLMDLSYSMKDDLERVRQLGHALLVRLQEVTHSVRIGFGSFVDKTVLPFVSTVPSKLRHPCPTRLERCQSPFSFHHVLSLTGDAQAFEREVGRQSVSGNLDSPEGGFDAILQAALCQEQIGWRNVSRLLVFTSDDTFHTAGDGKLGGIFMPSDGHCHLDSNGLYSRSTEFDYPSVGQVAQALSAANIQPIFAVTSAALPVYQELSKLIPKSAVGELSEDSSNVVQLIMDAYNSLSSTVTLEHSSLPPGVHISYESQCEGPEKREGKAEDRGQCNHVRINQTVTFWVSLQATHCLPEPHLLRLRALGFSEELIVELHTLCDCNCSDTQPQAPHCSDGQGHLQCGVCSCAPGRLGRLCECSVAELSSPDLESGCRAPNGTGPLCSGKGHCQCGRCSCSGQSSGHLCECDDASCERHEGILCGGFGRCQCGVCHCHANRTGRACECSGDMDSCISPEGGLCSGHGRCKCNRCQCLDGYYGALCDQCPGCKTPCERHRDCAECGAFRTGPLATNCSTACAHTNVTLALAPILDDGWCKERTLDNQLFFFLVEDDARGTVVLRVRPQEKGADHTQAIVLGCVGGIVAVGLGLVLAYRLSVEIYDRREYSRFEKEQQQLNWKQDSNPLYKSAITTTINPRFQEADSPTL

Structure (SMILES) | IC50 (α4β7) [nM] | half-life at 22 μM [1] [min] | IC50 (rh integrin α4β7) [nM]
CC(=O)N[C@H]1CSSC[C@@H](C(=O)NCC(=O)N[C@@H](CCC(=O)O)C(=O)N[C@@H](CCCCN)C(=O)O)NC(=O)[C@H](CC(C)C)NC(=O)[C@H]([C@@H](C)O)NC(=O)[C@H](CC(=O)O)NC(=O)[C@H](CO)NC(=O)[C@H](CCCNC(=N)N)N(C)C1=O [compound 199, Ac-C-N-Me-R-S-D-T-L-C-G-E-K-OH] (Ac-C[NMeR]SDTLCGEK-OH; disulfide 1-7) | 4690 | 27 | 58
CC(=O)N[C@H]1CSSC[C@@H](C(=O)NCC(=O)N[C@@H](CCC(=O)O)C(=O)N[C@@H](CCCCNC(=O)COCC(=O)NCCCC[C@H](NC(=O)[C@H](CCC(=O)O)NC(=O)CNC(=O)[C@@H]2CSSC[C@H](NC(C)=O)C(=O)N(C)[C@@H](CCCNC(=N)N)C(=O)N[C@@H](CO)C(=O)N[C@@H](CC(=O)O)C(=O)N[C@@H]([C@@H](C)O)C(=O)N[C@@H](CC(C)C)C(=O)N2)C(=O)O)C(=O)O)NC(=O)[C@H](CC(C)C)NC(=O)[C@H]([C@@H](C)O)NC(=O)[C@H](CC(=O)O)NC(=O)[C@H](CO)NC(=O)[C@H](CCCNC(=N)N)N(C)C1=O [compound 201, (Ac-C-N-Me-R-S-D-T-L-C-G-E-K-OH)2-DIG] (I: Ac-C[NMeR]SDTLCGEK-OH / II: Ac-C[NMeR]SDTLCGEK-OH; disulfide I:1-I:7, II:1-II:7 (inferred); linker I:10-II:10 via Diglycolyl (inferred)) | 28 | 18 | 1
CC(=O)N[C@H]1CSSC(C)(C)[C@@H](C(=O)N[C@H](CCCCN)C(N)=O)NC(=O)[C@H](CC(C)C)NC(=O)[C@H]([C@@H](C)O)NC(=O)[C@H](CC(=O)O)NC(=O)[C@H](CO)NC(=O)[C@H](CCCNC(=N)N)N(C)C1=O [compound 202, Ac-C-N-Me-R-S-D-T-L-Pen-k-NH2] (Ac-C[NMeR]SDTL[Pen][dK]-NH2; disulfide 1-7) | 11000 | > 360 | 87
CC(=O)N[C@H]1CSSC(C)(C)[C@@H](C(=O)N[C@@H](Cc2c[nH]c3ccccc23)C(=O)N[C@H](CCCCNC(=O)COCC(=O)NCCCC[C@@H](NC(=O)[C@H](Cc2c[nH]c3ccccc23)NC(=O)[C@H]2NC(=O)[C@H](CC(C)C)NC(=O)[C@H]([C@@H](C)O)NC(=O)[C@H](CC(=O)O)NC(=O)[C@H](CO)NC(=O)[C@H](CCCNC(=N)N)N(C)C(=O)[C@@H](NC(C)=O)CSSC2(C)C)C(N)=O)C(N)=O)NC(=O)[C@H](CC(C)C)NC(=O)[C@H]([C@@H](C)O)NC(=O)[C@H](CC(=O)O)NC(=O)[C@H](CO)NC(=O)[C@H](CCCNC(=N)N)N(C)C1=O [compound 204, (Ac-C-N-Me-R-S-D-T-L-Pen-W-k-NH2)2-DIG] (I: Ac-C[NMeR]SDTL[Pen]W[dK]-NH2 / II: Ac-C[NMeR]SDTL[Pen]W[dK]-NH2; disulfide I:1-I:7, II:1-II:7 (inferred); linker I:9-II:9 via Diglycolyl (inferred)) | 22 | > 360 | 2
CC(=O)N[C@H]1CSSC(C)(C)[C@@H](C(=O)N[C@@H](CCC(=O)O)C(=O)N[C@H](CCCCNC(=O)COCC(=O)NCCCC[C@@H](NC(=O)[C@H](CCC(=O)O)NC(=O)[C@H]2NC(=O)[C@H](CC(C)C)NC(=O)[C@H]([C@@H](C)O)NC(=O)[C@H](CC(=O)O)NC(=O)[C@H](CO)NC(=O)[C@H](CCCNC(=N)N)N(C)C(=O)[C@@H](NC(C)=O)CSSC2(C)C)C(N)=O)C(N)=O)NC(=O)[C@H](CC(C)C)NC(=O)[C@H]([C@@H](C)O)NC(=O)[C@H](CC(=O)O)NC(=O)[C@H](CO)NC(=O)[C@H](CCCNC(=N)N)N(C)C1=O [compound 205, (Ac-C-N-Me-R-S-D-T-L-Pen-E-k-NH2)2-DIG] (I: Ac-C[NMeR]SDTL[Pen]E[dK]-NH2 / II: Ac-C[NMeR]SDTL[Pen]E[dK]-NH2; disulfide I:1-I:7, II:1-II:7 (inferred); linker I:9-II:9 via Diglycolyl (inferred)) | 26 | > 360 | 2.4
CC(=O)N[C@@H]1C(=O)N[C@@H](CCCNC(=N)N)C(=O)N[C@@H](CO)C(=O)N[C@@H](CC(=O)O)C(=O)N[C@@H]([C@@H](C)O)C(=O)N[C@@H](CC(C)C)C(=O)N[C@H](C(=O)N[C@H](CCCCNC(=O)COCC(=O)NCCCC[C@@H](NC(=O)[C@@H]2CSSC(C)(C)[C@H](NC(C)=O)C(=O)N[C@@H](CCCNC(=N)N)C(=O)N[C@@H](CO)C(=O)N[C@@H](CC(=O)O)C(=O)N[C@@H]([C@@H](C)O)C(=O)N[C@@H](CC(C)C)C(=O)N2)C(N)=O)C(N)=O)CSSC1(C)C [compound 207, (Ac-Pen-R-S-D-T-L-C-k-NH2)2-DIG] (I: Ac-[Pen]RSDTLC[dK]-NH2 / II: Ac-[Pen]RSDTLC[dK]-NH2; disulfide I:1-I:7, II:1-II:7 (inferred); linker I:8-II:8 via Diglycolyl (inferred)) | 49 | < 20 | 26
CC(=O)N[C@@H]1C(=O)N(C)[C@@H](CCCNC(=N)N)C(=O)N[C@@H](CO)C(=O)N[C@@H](CC(=O)O)C(=O)N[C@@H]([C@@H](C)O)C(=O)N[C@@H](CC(C)C)C(=O)N[C@H](C(=O)N[C@@H](Cc2c[nH]c3ccccc23)C(=O)N[C@H](CCCCN)C(N)=O)C(C)(C)SSC1(C)C [compound 208, Ac-Pen-N-Me-R-S-D-T-L-Pen-W-k-NH2] (Ac-[Pen][NMeR]SDTL[Pen]W[dK]-NH2; disulfide 1-7) | 412 | > 360 | 30.5
